Values joined by “and” are separate entries in the source; they are usually repeats but may differ in a detail not shown here. Equal entries are not always repeated. Inconclusive results and toxic doses are left out. Rule for the calls: active = survival T/C of 150% or more; inactive = T/C below 125% in these data.
System: P388 leukemia ip, CD2F1 mice, survival T/C
Assay: NCI In Vivo Anticancer Drug Screen. Data for tumor model P388 Leukemia (intraperitoneal) in CD2F1 (CDF1) mice
Conditions: endpoint: median survival time, higher = longer survival
Procedure, shortened: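 Mice carrying the transplanted tumor received test compound or vehicle. Survival was recorded in each group, and the value is the treated-group measurement divided by that of the vehicle-treated control group.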

[1] = dose: 50.0 mg/kg/injection, schedule: Q01DX005 (ip), vehicle: Klucel (hydroxypropylcellulose) (HPC)
[2] = dose: 100.0 mg/kg/injection, schedule: Q01DX005 (ip), vehicle: Klucel (hydroxypropylcellulose) (HPC)
[3] = dose: 200.0 mg/kg/injection, schedule: Q01DX005 (ip), vehicle: Klucel (hydroxypropylcellulose) (HPC)
[4] = dose: 60.0 mg/kg/injection, schedule: Q01DX005 (ip), vehicle: saline with Tween-80
[5] = dose: 120.0 mg/kg/injection, schedule: Q01DX005 (ip), vehicle: saline with Tween-80
[6] = dose: 240.0 mg/kg/injection, schedule: Q01DX005 (ip), vehicle: saline with Tween-80
[7] = dose: 50.0 mg/kg/injection, schedule: Q01DX005 (ip), vehicle: saline with Tween-80
[8] = dose: 100.0 mg/kg/injection, schedule: Q01DX005 (ip), vehicle: saline with Tween-80
[9] = dose: 200.0 mg/kg/injection, schedule: Q01DX005 (ip), vehicle: saline with Tween-80
[10] = dose: 100.0 mg/kg/injection, schedule: Q04DX003 (ip), vehicle: saline
[11] = dose: 200.0 mg/kg/injection, schedule: Q04DX003 (ip), vehicle: saline
[12] = dose: 50.0 mg/kg/injection, schedule: Q01DX009 (ip), vehicle: Klucel (hydroxypropylcellulose) (HPC)
[13] = dose: 50.0 mg/kg/injection, schedule: Q01DX005 (ip), vehicle: saline
[14] = dose: 100.0 mg/kg/injection, schedule: Q01DX005 (ip), vehicle: saline
[15] = dose: 25.0 mg/kg/injection, schedule: Q04DX003 (ip), vehicle: saline
[16] = dose: 50.0 mg/kg/injection, schedule: Q04DX003 (ip), vehicle: saline
[17] = dose: 60.0 mg/kg/injection, schedule: Q01DX005 (ip), vehicle: Klucel (hydroxypropylcellulose) (HPC)
[18] = dose: 120.0 mg/kg/injection, schedule: Q01DX005 (ip), vehicle: Klucel (hydroxypropylcellulose) (HPC)
[19] = dose: 240.0 mg/kg/injection, schedule: Q01DX005 (ip), vehicle: Klucel (hydroxypropylcellulose) (HPC)

Measured: T/C

C/C=C1/CN2C3CC1C1(C(=O)OC)C(OC(C)=O)[C@]4(C[C@H]21)c1ccccc1N(C)C34 (stereo partly specified)
inactive: dose: 3.0 mg/kg/injection, schedule: Q01DX005 (ip), vehicle: Klucel (hydroxypropylcellulose) (HPC) 94 % of control | dose: 6.0 mg/kg/injection, schedule: Q01DX005 (ip), vehicle: Klucel (hydroxypropylcellulose) (HPC) 100 % of control | dose: 12.0 mg/kg/injection, schedule: Q01DX005 (ip), vehicle: Klucel (hydroxypropylcellulose) (HPC) 98 % of control | dose: 24.0 mg/kg/injection, schedule: Q01DX005 (ip), vehicle: Klucel (hydroxypropylcellulose) (HPC) 106 % of control

COc1cc(CCN=Cc2cccnc2)c([N+](=O)[O-])cc1OC
inactive: [1] 101 % of control | [2] 100 % of control | [3] 100 % of control

COC(=O)c1nnn(-c2ccccc2C(C)C)c1C(=O)c1ccccc1
inactive: [4] 94 % of control | [5] 109 % of control | [6] 104 % of control

CN(C)CCCCNc1c2c(nc3c(Cl)cccc13)CCC2
inactive: [7] 99 % of control | [8] 105 % of control | [9] 99 % of control

O=C(O)C/[N+]([O-])=N\O
inactive: dose: 50.0 mg/kg/injection, schedule: Q01DX009 (ip), vehicle: saline 102 % of control | dose: 100.0 mg/kg/injection, schedule: Q01DX009 (ip), vehicle: saline 102 % of control | [10] 104 % of control | dose: 200.0 mg/kg/injection, schedule: Q01DX009 (ip), vehicle: saline 96 % of control | [11] 105 % of control | dose: 400.0 mg/kg/injection, schedule: Q01DX009 (ip), vehicle: saline 94 % of control | dose: 400.0 mg/kg/injection, schedule: Q04DX003 (ip), vehicle: saline 92 % of control

C/C(=N\NC(=S)N1CCC(c2ccccc2)CC1)c1ncccn1
inactive: dose: 12.5 mg/kg/injection, schedule: Q01DX005 (ip), vehicle: saline with Tween-80 110 % of control
active: [7] 169 % of control

CCOC(=O)Nc1nc2ccc(NC(C)=O)cc2s1
inactive: dose: 6.25 mg/kg/injection, schedule: Q01DX009 (ip), vehicle: Klucel (hydroxypropylcellulose) (HPC) 104 % of control | dose: 12.5 mg/kg/injection, schedule: Q01DX009 (ip), vehicle: Klucel (hydroxypropylcellulose) (HPC) 105 % of control | dose: 25.0 mg/kg/injection, schedule: Q01DX009 (ip), vehicle: Klucel (hydroxypropylcellulose) (HPC) 102 % of control | [12] 96 % of control

CCOC(=O)CCC1=C(C)c2cc3[n-]c(cc4nc(cc5[n-]c(cc1n2)c(CCC(=O)OCC)c5C)C=C4C)cc3C.[Cu+2]
inactive: [1] 101 % of control | [2] 97 % of control | [3] 100 % of control

CN(N=O)C(=O)NCC1OC(n2cnc3c(=O)[nH]cnc32)C(O)C1O (stereo unspecified)
inactive: [13] 100 % of control | [14] 105 % of control | dose: 200.0 mg/kg/injection, schedule: Q01DX005 (ip), vehicle: saline 121 % of control

c1cc2cc(-c3ccc4cc(C5=NCCN5)[nH]c4c3)[nH]c2cc1C1=NCCN1
inactive: [15] 108 % of control | [16] 116 % of control
active: [11] 184 % of control

COc1nc(NC2OCC(OC(C)=O)C(OC(C)=O)C2OC(C)=O)c(N=CC=Nc2c(NC3OCC(OC(C)=O)C(OC(C)=O)C3OC(C)=O)nc(OC)n(C)c2=O)c(=O)n1C (stereo unspecified)
inactive: [4] 92 % of control | [5] 91 % of control | [6] 91 % of control

Nc1nc2ccccc2[nH]1
inactive: dose: 20.0 mg/kg/injection, schedule: Q04DX003 (ip), vehicle: other 101 % of control | dose: 20.0 mg/kg/injection, schedule: Q04DX003 (oral), vehicle: other 102 % of control | dose: 40.0 mg/kg/injection, schedule: Q04DX003 (ip), vehicle: other 100 % of control | dose: 40.0 mg/kg/injection, schedule: Q04DX003 (oral), vehicle: other 100 % of control | dose: 80.0 mg/kg/injection, schedule: Q04DX003 (ip), vehicle: other 101 % of control | dose: 80.0 mg/kg/injection, schedule: Q04DX003 (oral), vehicle: other 102 % of control | dose: 160.0 mg/kg/injection, schedule: Q04DX003 (ip), vehicle: other 99 % of control | dose: 160.0 mg/kg/injection, schedule: Q04DX003 (oral), vehicle: other 102 % of control

Nc1ccc(N=Nc2cccc3c2Oc2ccccc2O3)c(N)n1
inactive: [7] 98 % of control | [8] 91 % of control | [9] 105 % of control

CN=C1OC2(c3ccccc3)C3=C(OC(=NC)N2C)C(=O)OC3(c2ccccc2)N1C (stereo unspecified)
inactive: [17] 98 % of control | [18] 95 % of control | [19] 91 % of control

COc1cc(C(N)CCc2ccc3c(c2)OCO3)cc(OC)c1OC (stereo unspecified)
inactive: [1] 110 % of control | [2] 98 % of control

CC1(C)CN(C(C)(C)C)COC1OC1OCN(C(C)(C)C)CC1(C)C (stereo unspecified)
inactive: dose: 37.5 mg/kg/injection, schedule: Q01DX009 (ip), vehicle: saline with Tween-80 118 % of control | dose: 75.0 mg/kg/injection, schedule: Q01DX009 (ip), vehicle: saline with Tween-80 109 % of control | dose: 150.0 mg/kg/injection, schedule: Q01DX009 (ip), vehicle: saline with Tween-80 119 % of control

COCCOCn1cccc1Cc1ccc(C)cc1
inactive: dose: 100.0 mg/kg/injection, schedule: Q01DX001 (ip), vehicle: distilled water + alcohol 100 % of control | dose: 200.0 mg/kg/injection, schedule: Q01DX001 (ip), vehicle: distilled water + alcohol 96 % of control | dose: 400.0 mg/kg/injection, schedule: Q01DX001 (ip), vehicle: distilled water + alcohol 99 % of control

CC1(C)OC2OC(COC(=O)c3ccccc3)C(OS(C)(=O)=O)C2O1 (stereo unspecified)
inactive: [7] 103 % of control | [8] 100 % of control | [9] 102 % of control

Cc1nc2sc3cc4ccccc4cc3n2c(=O)c1CN1CCCCC1
inactive: dose: 25.0 mg/kg/injection, schedule: Q04DX002 (ip), vehicle: Klucel (hydroxypropylcellulose) (HPC) 98 % of control | dose: 50.0 mg/kg/injection, schedule: Q04DX002 (ip), vehicle: Klucel (hydroxypropylcellulose) (HPC) 113 % of control | dose: 100.0 mg/kg/injection, schedule: Q04DX002 (ip), vehicle: Klucel (hydroxypropylcellulose) (HPC) 113 % of control

CCOC(=O)/C=C1\SC(C)(C)C1NC(=O)OCc1ccccc1 (stereo unspecified)
inactive: dose: 15.0 mg/kg/injection, schedule: Q01DX005 (ip), vehicle: Klucel (hydroxypropylcellulose) (HPC) 94 % of control | dose: 30.0 mg/kg/injection, schedule: Q01DX005 (ip), vehicle: Klucel (hydroxypropylcellulose) (HPC) 103 % of control | [17] 91 % of control and 93 % of control

CN(C)/N=C/c1ccc(O)cc1
inactive: [12] 118 % of control | dose: 100.0 mg/kg/injection, schedule: Q01DX009 (ip), vehicle: Klucel (hydroxypropylcellulose) (HPC) 100 % of control and 101 % of control | dose: 200.0 mg/kg/injection, schedule: Q01DX009 (ip), vehicle: Klucel (hydroxypropylcellulose) (HPC) 102 % of control and 114 % of control

Cc1ccc2c(c1)C1(C)C=C(CN3CCN(C)CC3)C(=O)CC1O2 (stereo unspecified)
inactive: [13] 108 % of control | [14] 103 % of control

CC1=C(C)C(N2CCOCC2)CS(=O)(=O)O1 (stereo unspecified)
inactive: [1] 109 % of control | [2] 101 % of control

COC(/C=N/O)c1ccccc1 (stereo unspecified)
inactive: dose: 25.0 mg/kg/injection, schedule: Q04DX003 (ip), vehicle: saline with Tween-80 100 % of control | [15] 109 % of control | dose: 50.0 mg/kg/injection, schedule: Q04DX003 (ip), vehicle: saline with Tween-80 100 % of control and 94 % of control | [16] 101 % of control | dose: 100.0 mg/kg/injection, schedule: Q04DX003 (ip), vehicle: saline with Tween-80 106 % of control and 87 % of control | [10] 101 % of control | [11] 105 % of control

O=C(O)c1cnc2cc3c(cc2c1Nc1ccccc1)OCO3
inactive: [17] 99 % of control | [18] 102 % of control | [19] 90 % of control
